From ChEMBL document CHEMBL4842348 (J Med Chem, 2021)

Assays:
[1] = MRT in CD1 mouse at 1 mg/kg, iv and 2 mg/kg, po; type: ADME, organism-based; settings: in vivo
[2] = Clearance in CD1 mouse at 1 mg/kg, iv and 2 mg/kg, po; type: ADME, organism-based; settings: in vivo
[3] = Cmax in CD1 mouse at 2 mg/kg, po; type: ADME, organism-based; design: route oral, dose 2 mg/kg; settings: in vivo
[4] = Tmax in CD1 mouse at 2 mg/kg, po; type: ADME, organism-based; settings: in vivo
[5] = Oral bioavailability in CD1 mouse at 2 mg/kg; type: ADME, organism-based; settings: in vivo
[6] = Plasma clearance in WH rat at 1 mg/kg, iv; type: ADME, organism-based
[7] = Volume of distribution at steady state in WH rat at 1 mg/kg, iv; type: ADME, organism-based; settings: in vivo, read-out: Vdss
[8] = MRT in WH rat at 1 mg/kg, iv; type: ADME, organism-based; settings: in vivo
[9] = Cmax in WH rat at 2 mg/kg, po; type: ADME, organism-based; design: route oral, dose 2 mg/kg; settings: in vivo
[10] = Tmax in WH rat at 2 mg/kg, po; type: ADME, organism-based; settings: in vivo
[11] = Oral bioavailability in WH rat at 2 mg/kg; type: ADME, organism-based; settings: in vivo
[12] = Plasma clearance in Beagle dog at 0.5 mg/kg, iv; type: ADME, organism-based, Canis lupus familiaris
[13] = Volume of distribution at steady state in Beagle dog at 0.5 mg/kg, iv; type: ADME, organism-based, Canis lupus familiaris; settings: in vivo, read-out: Vdss
[14] = Terminal half life in Beagle dog at 0.5 mg/kg, iv; type: ADME, organism-based, Canis lupus familiaris; settings: in vivo, read-out: beta t1/2 (converted)
[15] = MRT in Beagle dog at 0.5 mg/kg, iv; type: ADME, organism-based, Canis lupus familiaris; settings: in vivo
[16] = Cmax in Beagle dog at 2 mg/kg, po; type: ADME, organism-based, Canis lupus familiaris; design: route oral, dose 2 mg/kg; settings: in vivo
[17] = Tmax in Beagle dog at 2 mg/kg, po; type: ADME, organism-based, Canis lupus familiaris; settings: in vivo
[18] = Plasma clearance in rhesus monkey at 0.5 mg/kg, iv; type: ADME, organism-based, Macaca mulatta
[19] = Volume of distribution at steady state in rhesus monkey at 0.5 mg/kg, iv; type: ADME, organism-based, Macaca mulatta; settings: in vivo, read-out: Vdss
[20] = MRT in […] rhesus monkey at 0.5 mg/kg, iv; type: ADME, organism-based, Macaca mulatta; settings: in vivo
[21] = Tmax in rhesus monkey at 2 mg/kg, po; type: ADME, organism-based, Macaca mulatta; settings: in vivo
[22] = AUC (0 to infinitive) in rhesus monkey at 2 mg/kg, po; type: ADME, organism-based, Macaca mulatta; design: route oral, time infinity, dose 2 mg/kg; settings: in vivo
[23] = Oral bioavailability in rhesus monkey at 2 mg/kg; type: ADME, organism-based, Macaca mulatta; settings: in vivo
[24] = Half life in NFR-transgenic mouse plasma at 10 mg/kg, po single dose; type: ADME, organism-based
[25] = Half life in lean wild type mouse plasma at 10 mg/kg, po qd treated for 40 days; type: ADME, organism-based; settings: time 40 day
[26] = Half life in lean wild type mouse adipose tissue at 10 mg/kg, po qd treated for 40 days; type: ADME, organism-based; settings: time 40 day
[27] = Half life in DIO wild type mouse plasma at 10 mg/kg, po qd treated for 40 days; type: ADME, organism-based; settings: time 40 day
[28] = Half life in DIO wild type mouse liver at 10 mg/kg, po qd treated for 40 days; type: ADME, organism-based; settings: time 40 day
[29] = Half life in DIO wild type mouse adipose tissue at 10 mg/kg, po qd treated for 40 days; type: ADME, organism-based; settings: time 40 day
[30] = Half life in lean NFR-transgenic mouse plasma at 10 mg/kg, po qd treated for 40 days; type: ADME, organism-based; settings: time 40 day
[31] = Terminal half life in DIO NFR-transgenic mouse plasma at 10 mg/kg, po once daily for 14 days; type: ADME, organism-based; settings: time 14 day, read-out: beta t1/2 (converted)
[32] = Terminal half life in DIO NFR-transgenic mouse liver at 10 mg/kg, po once daily for 14 days; type: ADME, organism-based; settings: time 14 day, read-out: beta t1/2 (converted)
[33] = Terminal half life in DIO NFR-transgenic mouse adipose tissue at 10 mg/kg, po once daily for 14 days; type: ADME, organism-based; settings: time 14 day, read-out: beta t1/2 (converted)
[34] = Normalized AUC (0 to 72 hrs) in fasted dog at 1 mg/kg, po in 0.5% methocel; type: ADME, organism-based, Canis lupus familiaris; settings: in vivo
[35] = Normalized AUC (0 to 72 hrs) in high fat diet fed dog at 1 mg/kg, po in 0.5% methocel; type: ADME, organism-based, Canis lupus familiaris; settings: in vivo
[36] = Normalized AUC (0 to 72 hrs) in fasted dog at 1 mg/kg, po in Imwitor/Tween; type: ADME, organism-based, Canis lupus familiaris; settings: in vivo
[37] = Normalized AUC (0 to 72 hrs) in high fat diet fed dog at 1 mg/kg, po in Imwitor/Tween; type: ADME, organism-based, Canis lupus familiaris; settings: in vivo
[38] = Cmax in fasted dog at 1 mg/kg, po in 0.5% methocel; type: ADME, organism-based, Canis lupus familiaris; design: route oral, dose 1 mg/kg; settings: in vivo
[39] = Cmax in high fat diet fed dog at 1 mg/kg, po in 0.5% methocel; type: ADME, organism-based, Canis lupus familiaris; design: route oral, dose 1 mg/kg; settings: in vivo
[40] = Cmax in fasted dog at 1 mg/kg, po in Imwitor/Tween; type: ADME, organism-based, Canis lupus familiaris; design: route oral, dose 1 mg/kg; settings: in vivo
[41] = Oral bioavailability in fasted dog at 1 mg/kg in 0.5% methocel; type: ADME, organism-based, Canis lupus familiaris; settings: in vivo
[42] = Oral bioavailability in high fat diet fed dog at 1 mg/kg in 0.5% methocel; type: ADME, organism-based, Canis lupus familiaris; settings: in vivo
[43] = Oral bioavailability in fasted dog at 1 mg/kg in Imwitor/Tween; type: ADME, organism-based, Canis lupus familiaris; settings: in vivo
[44] = Oral bioavailability in high fat diet fed dog at 1 mg/kg in Imwitor/Tween; type: ADME, organism-based, Canis lupus familiaris; settings: in vivo
[45] = Drug recovery in bile duct cannulated single po dosed WH rat assessed as recovered glucuronide conjugate in bile relative to total recovery; type: ADME, organism-based; settings: in vivo
[46] = Drug recovery in bile duct cannulated single po dosed WH rat assessed as recovered taurine conjugate in bile relative to total recovery; type: ADME, organism-based; settings: in vivo
[47] = Drug recovery in bile duct cannulated single po dosed WH rat assessed as recovered total feces radioactivity; type: ADME, organism-based; settings: in vivo
[48] = Drug recovery in bile duct cannulated single po dosed WH rat assessed as recovered total urine radioactivity; type: ADME, organism-based; settings: in vivo
[49] = Drug recovery in bile duct cannulated single iv dosed WH rat assessed as recovered total bile radioactivity; type: ADME, organism-based; settings: in vivo
[50] = Drug recovery in bile duct cannulated single iv dosed WH rat assessed as recovered total feces radioactivity; type: ADME, organism-based; settings: in vivo
[51] = Drug recovery in bile duct cannulated single iv dosed WH rat assessed as recovered parent compound in plasma measure at 2 hrs relative to total recovery; type: ADME, organism-based; settings: in vivo
[52] = Drug recovery in bile duct cannulated single iv dosed WH rat assessed as recovered glucuronide conjugate in plasma measure at 2 hrs relative to total recovery; type: ADME, organism-based; settings: in vivo
[53] = Drug recovery in bile duct cannulated single iv dosed WH rat assessed as recovered parent compound in plasma measure at 24 hrs relative to total recovery; type: ADME, organism-based; settings: in vivo
[54] = Drug recovery in bile duct cannulated single po dosed rhesus monkey assessed as recovered total bile radioactivity; type: ADME, organism-based, Macaca mulatta; settings: in vivo
[55] = Drug recovery in bile duct cannulated single po dosed rhesus monkey assessed as recovered parent compound in bile relative to total recovery; type: ADME, organism-based, Macaca mulatta; settings: in vivo
[56] = Drug recovery in bile duct cannulated single po dosed rhesus monkey assessed as recovered glucuronide conjugate in bile relative to total recovery; type: ADME, organism-based, Macaca mulatta; settings: in vivo
[57] = Drug recovery in bile duct cannulated single po dosed rhesus monkey assessed as recovered glucuronide conjugate in feces relative to total recovery; type: ADME, organism-based, Macaca mulatta; settings: in vivo
[58] = Drug recovery in bile duct cannulated single po dosed rhesus monkey assessed as recovered parent compound in urine relative to total recovery; type: ADME, organism-based, Macaca mulatta; settings: in vivo
[59] = Drug recovery in bile duct cannulated single po dosed rhesus monkey assessed as recovered parent compound in plasma measured at 2 hrs relative to total recovery; type: ADME, organism-based, Macaca mulatta; settings: in vivo
[60] = Drug recovery in bile duct cannulated single po dosed rhesus monkey assessed as recovered parent compound in plasma measured at 24 hrs relative to total recovery; type: ADME, organism-based, Macaca mulatta; settings: in vivo

Structure (SMILES): COc1ncc(-c2ccc(C(=O)O)cc2C)cc1-c1ccc(C(F)(F)F)cc1[C@@H]1CC[C@H]2[C@@H](c3cc(C(F)(F)F)cc(C(F)(F)F)c3)OC(=O)N12
- MRT [1]: 6 h
- clearance [2]: 2.6 mL/min/kg
- Cmax [3]: 430 nM
- Tmax [4]: 2.7 h
- bioavailability [5]: 43%
- clearance [6]: 3.1 mL/min/kg
- Vd [7]: 2.4 L/kg
- MRT [8]: 13 h
- Cmax [9]: 400 nM
- Tmax [10]: 4 h
- bioavailability [11]: 65%
- clearance [12]: 0.52 mL/min/kg
- Vd [13]: 0.54 L/kg
- half-life [14]: 15 h
- MRT [15]: 18 h
- Cmax [16]: 690 nM
- Tmax [17]: 1.7 h
- clearance [18]: 0.39 mL/min/kg
- Vd [19]: 1.3 L/kg
- MRT [20]: 60 h
- Tmax [21]: 6.7 h
- AUC(0-inf) [22]: 11 µM·h
- bioavailability [23]: 8.4%
- half-life [24]: 12 h
- half-life [25]: 0.8 h
- half-life [26]: 0.8 h
- half-life [27]: 67.2 h
- half-life [28]: 76.8 h
- half-life [29]: 86.4 h
- half-life [30]: 288 h
- half-life at […] [31]: 3.8 h
- half-life at […] [32]: 5.5 h
- half-life at […] [33]: 2.8 h
- AUC/dose [34]: 6.5 µM·kg·h/mg
- AUC/dose [35]: 4.2 µM·kg·h/mg
- AUC/dose [36]: 24 µM·kg·h/mg
- AUC/dose [37]: 22 µM·kg·h/mg
- Cmax [38]: 500 nM
- Cmax [39]: 300 nM
- Cmax [40]: 1500 nM
- bioavailability [41]: 14%
- bioavailability [42]: 9%
- bioavailability [43]: 53%
- bioavailability [44]: 48%
- Drug recovery [45]: > 98%
- Drug recovery [46]: 0%
- Drug recovery [47]: 46%
- Drug recovery [48]: 0%
- Drug recovery [49]: 67%
- Drug recovery [50]: 15%
- Drug recovery [51]: > 96%
- Drug recovery [52]: < 4%
- Drug recovery [53]: > 99%
- Drug recovery [54]: > 99%
- Drug recovery [55]: < 1%
- Drug recovery [56]: > 96%
- Drug recovery [57]: 5%
- Drug recovery [58]: > 99%
- Drug recovery [59]: > 99%
- Drug recovery [60]: > 99%
